Data reported in patent publication EP3516395B1, “METHOD FOR DETERMINING AFFINITY BETWEEN LIGANDS AND A TARGET” (Plant Advanced Technologies Pat, priority 2016, dated 2018).

Experiments:
tyrosinase de champignon = assay: Relative affinity by competitive binding, ultrafiltration and UPLC-MS/UV (Example 1); details: equimolar ligands
Description: Une solution de travail de tyrosinase de champignon à 1.25 mg/mL est préparée en dissolvant de la poudre de l'enzyme lyophilisée dans 50 mM d'acétate d'ammonium, avec un pH de 7.0. L'échantillon est préparé en utilisant l'un des solvants suivants : des glycols, DMSO (diméthylsulfoxide), l'éthanol, pur ou en solution dans l'eau. La concentration dans l'échantillon des ligands initiaux est équimolaire et doit être dans la gamme de 0,75 à 1 mM. Les ligands choisis étaient des inhibiteurs connus de la tyrosinase isolés depuis des racines de murier noir (Morus nigra) : la moracénine A, moracénine B et la kuwanone C. Un échantillon de référence est préparé également en diluant l'échantillon de 10 à 20 fois dans une solution d'eau et d'un quart de volume d'acétonitrile.
• 1. Étape de préconditionnement - Des puits à membrane filtrante sont pré-conditionnées avec un volume de 500 µl d'une solution à 85% d'acétate d'ammonium et 15% d'éthanol qui est passé à travers la membrane avec une centrifugation de 14000 g pendant 60 secondes. • 2. Étape de liaison - La préparation de tyrosinase (1.25 mg/mL, 75 µL) est mélangée avec 5 µl de l'échantillon dans un tube d'Eppendorf en plastique, puis est incubée pendant 5 min. Dans ce mélange, on a 9,16 µM de tyrosinase et une gamme de 46,88 µM à 62,5 µM de ligands (moracénine A, moracénine B et kuwanone C) soit un ratio ligands/cible allant de 5,12 à 6,83. • 3. Étape de lavage - le mélange de l'enzyme et de l'échantillon est déposé dans un puits préconditionné à l'étape de préconditionnement, puis centrifugé à 14000 g jusqu'à l'élimination de l'essentiel du solvant. Les complexes enzyme-ligands restent à la surface de la membrane du filtre puis sont à nouveau suspendu dans un volume de 100 µL de la même solution à 85% d'acétate d'ammonium et 15% d'éthanol et centrifugé à 14000 g jusqu'à élimination du solvant. Cette procédure est répétée trois fois et élimine tous les composés qui ne sont pas liés à l'enzyme. • 4. Étape de séparation - Les complexes enzyme-ligands retenus dans le filtre sont à nouveau suspendus dans un volume de 10 µL d'eau ultra-pure, puis sont mélangés avec un volume de 40 µL d'acétonitrile pour dénaturer et précipiter l'enzyme et, en même temps libérer les ligands. Le mélange est centrifugé à 21000 g pendant 10 min pour séparer le précipité du surnageant. • 5. Étape d'analyse - Ledit surnageant formant la solution traitée est analysé par chromatographie en phase liquide couplée à une spectrométrie de masse, connue également par l'acronyme UPLC-MS. L'échantillon de référence est analysé également de la même manière, en utilisant les mêmes conditions d'analyse. Les affinités relatives sont calculées selon la méthode décrite ci-après. De préférence, l'échantillon de référence et la solution traitée sont analysés séquentiellement pour éliminer des dispersions dues aux réglages de l'appareillage.
Une analyse par chromatographie en phase liquide fournit un chromatogramme tel que montré par les figures 1 et 2. Le chromatogramme représente une intensité de signal en fonction du temps de rétention dans une colonne. Le signal présente différents pics d'intensité variable. Chaque pic est associé à l'un des ligands présent dans l'échantillon et la solution traitée. • 1. Normalisation de l'intensité du signal analytique pour les ligands dans l'échantillon de référence. Pour chaque chaque ligand CEi dans l'échantillon de référence, on établit des facteurs de normalisation NFeq dudit ligand CEi par comparaison au ligand de référence REF, selon l'équation suivante : NFeq,CEi = (ISeq,CEi)/(ISeq,REF) [formula] où : • NF est un facteur de normalisation; • ISeq,CEi est l'intensité du signal analytique pour le ligand CEi dans l'échantillon; • ISeq,REF est l'intensité du signal analytique pour le ligand de référence REF dans l'échantillon. L'intensité peut être choisie parmi l'aire du pic ou la valeur maximale du pic. Le facteur de normalisation du ligand de référence vaut toujours 1. • 2. […]

tyrosinase = details: literature values, 50% reduction of enzyme activity; cited from earlier work

For moracénine A, the “Facteur de normalisation, solution traitée” value (tyrosinase de champignon; NFTB, peak area UV 270 nm relative to reference ligand moracénine B) is given as 1,29, the Affinités relatives (tyrosinase de champignon; RA = NFTB/NFeq, reference ligand moracénine B) is given as 1,50 and the IC50 (tyrosinase) is given as 10.3 µM.
